Source: publication PMC6096477, “Structure of a Talaromyces pinophilus GH62 arabinofuranosidase in complex with AraDNJ at 1.25 Å resolution” (Acta Crystallographica. Section F, Structural Biology …, 2018)

Target: T1, Talaromyces pinophilus GH62 arabinofuranosidase (Talaromyces pinophilus, UniProt A0A2H5BN17)
T1 construct: single-module GH62 enzyme, secreted from Aspergillus oryzae; about 35 kDa; amino-terminal residue Ser24; chain traced 25-325; 2 subunits in asymmetric unit; no tag mentioned
Test: isothermal titration calorimetry
Assay type: binding

T1 sequence (A0A2H5BN17 entry or part of it): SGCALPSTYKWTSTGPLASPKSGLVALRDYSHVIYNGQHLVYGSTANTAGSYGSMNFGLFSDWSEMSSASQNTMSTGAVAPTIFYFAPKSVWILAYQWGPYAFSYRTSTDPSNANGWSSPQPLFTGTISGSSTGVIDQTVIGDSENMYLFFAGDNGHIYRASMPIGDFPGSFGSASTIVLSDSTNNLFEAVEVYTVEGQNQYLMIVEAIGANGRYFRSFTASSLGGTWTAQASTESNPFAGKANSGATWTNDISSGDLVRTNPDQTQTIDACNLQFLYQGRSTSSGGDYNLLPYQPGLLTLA

## OC[C@@H]1NC[C@H](O)[C@H]1O [AraDNJ, 1,4-dideoxy-l,4-imino-L-arabinitol]
  Kd: 24 ± 0.4 µM
